Tests used:
[1] = target: T1, olfactory receptor OR2AT4 (Homo sapiens, UniProt A6NND4); settings: according to Busse et al.; cited from earlier work
T1 sequence (A6NND4 1-320): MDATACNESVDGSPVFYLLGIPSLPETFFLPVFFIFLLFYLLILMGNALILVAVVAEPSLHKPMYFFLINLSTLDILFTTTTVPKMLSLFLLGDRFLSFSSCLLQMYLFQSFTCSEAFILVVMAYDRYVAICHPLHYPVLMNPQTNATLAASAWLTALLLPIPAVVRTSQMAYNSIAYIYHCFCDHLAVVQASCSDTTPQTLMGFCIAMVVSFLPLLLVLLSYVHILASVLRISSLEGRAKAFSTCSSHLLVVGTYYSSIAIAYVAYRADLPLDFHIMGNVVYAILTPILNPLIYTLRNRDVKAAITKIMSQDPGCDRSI

[2] = test system: cultured human keratinocytes; settings: Busse et al.; cited from earlier work
TGFβ2 = TGFβ2 immunofluorescence in ORS keratinocytes of cultured HFs; type: cell-based, human; settings: 500 μM (Phenirat 1:1), 6 day-treatment, proximal ORS keratinocytes, compared to vehicle
Experimental: In addition, TGFβ2, a potent catagen inducer, was investigated with reference to the same above compounds.
OCT embedded samples were sectioned (6 μm thickness) with a cryostat. Sections were fixed in 4% paraformaldehyde, pre-incubated with 10% of goat serum (for OR2AT4) or 5% goat serum+0.3% Tritton X-100 (for cleaved-caspase 3) and incubated with the corresponding primary antibody at 4° C. overnight ( 1/100 for OR2AT4 and 1/400 for cleaved-caspase 3). Secondary antibody incubation was performed at RT for 45 min. Counterstaining with DAPI (1 μg/mL) was performed to visualize nuclei. For TGFb2, samples were fixed in acetone and the endogenous peroxidases were blocked with 3% of H2O2. This step was followed by an avidin-biotin blocking step and a preincubation with TNB buffer (Tris HCl+NaCl+Casein). […] Images were taken using a Keyence fluorescence microscope (Osaka, Japan) maintaining a constant set exposure time throughout imaging for further analysis. […]
Staining intensity was evaluated in well-defined reference areas by quantitative (immuno-)histomorphometry, as previously described (Bertolini et al., 2014) using NIH IMAGE software (NIH, Bethesda, Md., USA). […]
TGFβ2 expression was quantified using Image J. Mean±SEM, n=14-22 HFs from 2 patients, Kruskal-Wallis and Dunn's multiple comparisons test as post hoc test, *p<0.05, ***p<0.001, and Mann-Whitney test, ns. […]

[3] = test system: hair matrix keratinocytes; assay: Ki67/TUNEL staining of hair matrix keratinocytes in HF organ culture; type: cell-based, human; settings: 500 μM (Phenirat 1:1), 6 day-culture, compared to vehicle
Experimental: (§1) HFs were treated with either the vehicle, sandal pentanol, Phenirat or a mixture of sandal pentanol and Phenirat. To analyse modifications of the hair cycle, Ki67/TUNEL were performed and used to evaluate hair cycle score and hair matrix keratinocytes proliferation and apoptosis.
OCT embedded samples were sectioned (6 μm thickness) with a cryostat. Sections were fixed in 4% paraformaldehyde, pre-incubated with 10% of goat serum (for OR2AT4) or 5% goat serum+0.3% Tritton X-100 (for cleaved-caspase 3) and incubated with the corresponding primary antibody at 4° C. overnight ( 1/100 for OR2AT4 and 1/400 for cleaved-caspase 3). Secondary antibody incubation was performed at RT for 45 min. Counterstaining with DAPI (1 μg/mL) was performed to visualize nuclei. For TGFb2, samples were fixed in acetone and the endogenous peroxidases were blocked with 3% of H2O2. This step was followed by an avidin-biotin blocking step and a preincubation with TNB buffer (Tris HCl+NaCl+Casein). The corresponding primary antibody was incubated at 4° C. overnight ( 1/1000 for TGFb2). Secondary antibody incubation was performed at RT for 45 min before using the Tyramide signal amplification kit (Perkin Elmer). Counterstaining with DAPI was performed to visualize nuclei. To stain apoptotic and proliferating cells, we have used the apoptag kit (Merck Milipore) following manufacture's protocol followed by Ki67 staining. The primary antibody was incubated overnight (Ki67, 1/20) after the TdT-enzyme step. The secondary antibody was incubated for 45 min at RT after the fluorescent-labelled anti-Digoxigenin step of the apoptag kit. Counterstaining with DAPI was performed to visualize nuclei. Negative controls were performed by omitting the primary antibody. Images were taken using a Keyence fluorescence microscope (Osaka, Japan) maintaining a constant set exposure time throughout imaging for further analysis.
After 24 h of incubation, WEM medium was replaced and HFs were treated with the corresponding substances for 6 days following experimental conditions. HFs were treated either with vehicle (0.1% DMSO), sandal pentanol (500 μM), Phenirat (in a ratio 1:1 to the agonist), or a mixture sandal pentanol+Phenirat.
Staining intensity was evaluated in well-defined reference areas by quantitative (immuno-)histomorphometry, as previously described (Bertolini et al., 2014) using NIH IMAGE software (NIH, Bethesda, Md., USA).
With reference to the evidence of FIG. 4, to investigate whether sandal pentanol influences hair matrix keratinocytes proliferation and apoptosis, Ki67/TUNEL staining was performed. Proliferating (diagram of FIG. 4A) and apoptotic (diagram of FIG. 4B) hair matrix keratinocytes were counted in the hair matrix of treated and vehicle HFs. […]

[4] = test system: microdissected human scalp HFs; assay: Hair cycle score / staging (catagen induction) in HF organ culture; type: cell-based; settings: 500 μM (Phenirat 1:1), 6 days of culture, compared to vehicle
Experimental: as §1
Human scalp samples were obtained after face-lifting procedure and used at the same day for microdissecting human anagen VI scalp HFs. Microdissected human scalp HFs were cultured at 37° C. with 5% CO2 in a minimal media of William's E media (Gibco, Life technologies) supplemented with 2 mM of L-glutamine (Gibco), 10 ng/ml hydrocortisone (Sigma-Aldrich), 10 μg/ml insulin (Sigma-Aldrich) and 1% penicillin/streptomycin mix (Gibco) (WEM) as previously described (Philpott, 1990; Kloepper, 2010; Langan et al, 2015). […]
(§2) Phenirat was added 30 min before sandal pentanol. Hair shaft elongation was measured daily using an inverted binocular microscope (Philpott et al., 1990) and culture medium was replaced every second day. […]
To investigate the specificity of the effect on hair growth of OR2AT4 stimulation by sandal pentanol, microdissected HFs were cultured with sandal pentanol and/or Phenirat, and hair cycle performed staging analysis as previously described (Kloepper, 2010; Langan et al, 2015). Hair cycle score was measured both in treated and vehicle HFs after 6 days of culture. […]

[5] = test system: microdissected human scalp HFs; assay: Hair shaft elongation in HF organ culture; type: cell-based; settings: 500 μM, cultured microdissected HFs from two donors, compared to vehicle
Experimental: (§3) Then, in order to assess whether stimulation of OR2AT4 can influence human hair growth, microdissected HFs were treated with sandal pentanol at a concentration of 500 μM, as the agonist and a hair shaft elongation measurement was performed (see Philpott et al., 1990). In addition, a kinase assay was conducted in order to identify which signalling pathways are involved in the specific stimulation of OR2AT4 by sandal pentanol.
Human scalp samples were obtained after face-lifting procedure and used at the same day for microdissecting human anagen VI scalp HFs. […]
as §2
To check whether the activation of OR2AT4 can influence the hair cycle of human HF, microdissected human HFs were specifically stimulated with the potential agonist, sandal pentanol. The effect of the sandal pentanol treatment was evaluated by measuring hair shaft elongation compared to vehicle.
HF elongation was measured in cultured microdissected HFs. […]

keratinocytes = settings: long-term stimulation, in vitro wound scratch assay, Busse et al.; cited from earlier work
[6] = test system: human skin organ cultures; settings: Busse et al.; cited from earlier work
[7] = test system: apoptotic signalling pathway; assay: Kinase assay of signalling pathways after OR2AT4 stimulation; type: cell-based, human; settings: specific stimulation of OR2AT4 in microdissected HFs
Experimental: as §3

SMILES	activity at olfactory receptor OR2AT4 [1]	Ca2+ signals [2]	TGFβ2 expression at the protein level (TGFβ2)	hair matrix keratinocyte apoptosis (TUNEL) [3]	hair matrix keratinocyte proliferation (Ki67) [3]	catagen induction / anagen prolongation (hair cycle score) [4]	hair shaft elongation [5]	cell proliferation, migration and regeneration of keratinocyte monolayers (keratinocytes)	epidermal wound healing [6]	effect on apoptotic signalling pathway [7]
CC1=CC[C@@H](CC[C@@H](C)CO)C1(C)C (stereo in doubt) [brahmanol, 2-Methyl-4-(2,2,3-trimethyl-3-cyclopenten-1-yl)butanol]	agonists	induce Ca^2+ signals								
CC(C)C(=O)OCCOc1ccccc1 [Phenirat, phenoxyethyl isobutyrate, reference compound]	specific antagonist		no change	this effect is not obtained	did not change	did not prolong anagen				
CC1=CCC(CCC(C)C(C)O)C1(C)C (centres unmarked) [sandal pentanol, 3-methyl-5-(2,2,3-trimethylcyclopent-3-en-1-yl)pentan-2-ol]	agonists	induce Ca^2+ signals	significant decrease	significantly decreased	did not change	delayed catagen induction	stimulates hair shaft elongation	positively affects	enhances epidermal wound healing	Inhibits Apoptotic Signalling Pathway
